Values quoted from earlier work in patent publication US7815928B2, “Device for local administration of solid or semi-solid formulations and delayed-release formulations for proposal parenteral administration and preparation process” (Societe de Conseils de Recherches et d'Applications …, priority 1996, dated 2010).

System: smooth muscle cells
Conditions: after endothelial damage

heparin
proliferation of smooth muscle cells: inhibits the proliferation
